Test results: ChEMBL document CHEMBL4376815, “The Development Process for Discovery and Clinical Advancement of Modern Antimalarials” (J Med Chem, 2019)
Values belong to the compound of their own block, whether it stands above or below them.

Key:
[1] = target: Cytochrome P450 3A4 (Homo sapiens, UniProt P08684); experiment: Inhibition of CYP3A4 (unknown origin); format: ADME
[2] = Cardiotoxicity in human assessed as effect on QT parameters at 1280 mg; format: toxicity
[3] = Tmax in human at 25 to 1200 mg, po measured up to 480 hrs by HPLC-MS/MS analysis; format: ADME, organism-based; conditions: in vivo
[4] = Half life in human at 25 to 1200 mg, po measured up to 480 hrs by HPLC-MS/MS analysis; format: ADME, organism-based; conditions: in vivo
[5] = AUC (0 to infinity) in human at 25 to 1200 mg, po measured up to 480 hrs by HPLC-MS/MS analysis; format: ADME, organism-based; conditions: in vivo
[6] = tested on: Plasmodium falciparum; experiment: Antimalarial activity against Plasmodium falciparum 3D7; format: functional, organism-based
[7] = Cmax in Wistar Hannover rat at 10 mg/kg, po by LC-MS/MS analysis; format: ADME, organism-based; set-up: dose 10 mg/kg, route oral; conditions: in vivo
[8] = Tmax in Wistar Hannover rat at 10 mg/kg, po by LC-MS/MS analysis; format: ADME, organism-based; conditions: in vivo
[9] = Oral bioavailability in Wistar Hannover rat at 10 mg/kg by LC-MS/MS analysis; format: ADME, organism-based; conditions: in vivo
[10] = tested on: Plasmodium vivax; experiment: Antimalarial activity against Plasmodium vivax assessed as reduction in parasite growth after 72 hrs by SYBR-green based fluorescence assay; format: functional, organism-based
[11] = tested on: Plasmodium falciparum; experiment: Antimalarial activity against Plasmodium falciparum assessed as reduction in parasite growth after 72 hrs by SYBR-green based fluorescence assay; format: functional, organism-based
[12] = Half life in Wistar Hannover rat at 3 mg/kg, iv by LC-MS/MS analysis; format: ADME, organism-based; conditions: in vivo
[13] = Plasma clearance in Wistar Hannover rat at 3 mg/kg, iv by LC-MS/MS analysis; format: ADME, organism-based
[14] = Volume of distribution at steady state in Wistar Hannover rat at 3 mg/kg, iv by LC-MS/MS analysis; format: ADME, organism-based; conditions: in vivo, read-out: Vdss
[15] = Half life in Wistar Hannover rat at 10 mg/kg, po by LC-MS/MS analysis; format: ADME, organism-based; conditions: in vivo
[16] = Tmax in human at 10 to 1200 mg and measured up to 360 hrs by LC-MS/MS method; format: ADME; conditions: in vivo
[17] = Cmax in human at 10 to 1200 mg and measured up to 360 hrs by LC-MS/MS method; format: ADME; conditions: in vivo
[18] = Apparent clearance in human at 10 to 1200 mg and measured up to 360 hrs by LC-MS/MS method; format: ADME; conditions: in vivo, read-out: CL(app)
[19] = Volume of distribution in human at 10 to 1200 mg and measured up to 360 hrs by LC-MS/MS method; format: ADME; conditions: in vivo
[20] = Half life in human at 10 to 1200 mg and measured up to 360 hrs by LC-MS/MS method; format: ADME; conditions: in vivo
[21] = Cardiotoxicity in human assessed as effect on QT parameters at 800 mg; format: toxicity
[22] = Cardiotoxicity in human assessed as effect on QT parameters at 800 mg in presence of PPQ; format: toxicity; conditions: in vivo
[23] = Half life in human infected with Plasmodium falciparum at 400 mg administered for 3 consecutive days and measured up to 192 hrs; format: ADME; conditions: in vivo
[24] = Half life in human infected with Plasmodium vivax at 400 mg administered for 3 consecutive days and measured up to 192 hrs; format: ADME; conditions: in vivo
[25] = tested on: Plasmodium falciparum; experiment: Antimalarial activity against Plasmodium falciparum infected in human assessed as median parasite clearance time at 400 […], po administered for 3 consecutive day and measured on day 5; format: functional
[26] = tested on: Plasmodium falciparum; experiment: Antimalarial activity against Plasmodium falciparum infected in human assessed as median parasite clearance time at 800 […], po and measured on day 5; format: functional
[27] = tested on: Plasmodium vivax; experiment: Antimalarial activity against Plasmodium vivax infected in human assessed as median parasite clearance time at 400 […], po administered for 3 consecutive day and measured on day 5; format: functional
[28] = tested on: Plasmodium vivax; experiment: Antimalarial activity against Plasmodium vivax infected in human assessed as median parasite clearance time at 800 […], po and measured on day 5; format: functional
[29] = target: T1, Dihydroorotate dehydrogenase (Plasmodium falciparum, UniProt Q54A96); experiment: Inhibition of Plasmodium falciparum DHODH expressed in Escherichia coli using L-dihydroorotate as substrate
T1 sequence (Q54A96 whole entry): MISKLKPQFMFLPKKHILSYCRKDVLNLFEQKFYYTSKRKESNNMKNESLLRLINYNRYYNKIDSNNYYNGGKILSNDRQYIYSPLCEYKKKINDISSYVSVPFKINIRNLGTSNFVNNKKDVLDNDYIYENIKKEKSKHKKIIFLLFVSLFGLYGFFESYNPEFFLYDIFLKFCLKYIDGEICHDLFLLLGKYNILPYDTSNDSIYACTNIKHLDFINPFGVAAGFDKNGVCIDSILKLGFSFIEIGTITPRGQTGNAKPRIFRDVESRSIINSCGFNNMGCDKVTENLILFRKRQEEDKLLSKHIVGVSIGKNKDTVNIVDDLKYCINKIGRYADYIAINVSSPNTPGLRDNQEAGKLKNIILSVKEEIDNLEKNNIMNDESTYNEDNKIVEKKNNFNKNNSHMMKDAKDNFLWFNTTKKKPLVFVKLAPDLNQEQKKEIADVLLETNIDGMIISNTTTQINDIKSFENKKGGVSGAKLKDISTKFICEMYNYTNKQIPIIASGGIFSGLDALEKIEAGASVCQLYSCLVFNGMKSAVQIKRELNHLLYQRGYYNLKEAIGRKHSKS

[30] = target: Dihydroorotate dehydrogenase (quinone), mitochondrial (Homo sapiens, UniProt Q02127); experiment: Inhibition of human DHODH expressed in Escherichia coli using L-dihydroorotate as substrate
[31] = tested on: Plasmodium falciparum; experiment: Antimalarial activity against Plasmodium falciparum; format: functional, organism-based
[32] = Drug level in human Plasma treated with [14C]-KAE609 assessed metabolite formation; format: ADME, cell-free

Chain of Cytochrome P450 3A4 (P08684 whole entry): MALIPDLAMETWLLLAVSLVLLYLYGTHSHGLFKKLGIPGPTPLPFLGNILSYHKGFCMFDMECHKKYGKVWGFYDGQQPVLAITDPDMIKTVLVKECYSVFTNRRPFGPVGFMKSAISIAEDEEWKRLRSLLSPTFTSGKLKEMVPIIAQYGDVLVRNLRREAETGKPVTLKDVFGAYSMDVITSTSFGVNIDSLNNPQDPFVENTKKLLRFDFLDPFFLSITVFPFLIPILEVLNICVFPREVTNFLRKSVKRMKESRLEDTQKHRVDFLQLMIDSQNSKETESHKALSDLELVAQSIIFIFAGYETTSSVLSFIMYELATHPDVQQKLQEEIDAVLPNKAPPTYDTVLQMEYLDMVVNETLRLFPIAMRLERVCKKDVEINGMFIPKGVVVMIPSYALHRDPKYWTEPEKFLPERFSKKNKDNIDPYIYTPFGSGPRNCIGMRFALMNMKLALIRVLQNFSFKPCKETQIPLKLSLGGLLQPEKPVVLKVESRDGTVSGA
Chain of Dihydroorotate dehydrogenase (quinone), mitochondrial (Q02127 whole entry): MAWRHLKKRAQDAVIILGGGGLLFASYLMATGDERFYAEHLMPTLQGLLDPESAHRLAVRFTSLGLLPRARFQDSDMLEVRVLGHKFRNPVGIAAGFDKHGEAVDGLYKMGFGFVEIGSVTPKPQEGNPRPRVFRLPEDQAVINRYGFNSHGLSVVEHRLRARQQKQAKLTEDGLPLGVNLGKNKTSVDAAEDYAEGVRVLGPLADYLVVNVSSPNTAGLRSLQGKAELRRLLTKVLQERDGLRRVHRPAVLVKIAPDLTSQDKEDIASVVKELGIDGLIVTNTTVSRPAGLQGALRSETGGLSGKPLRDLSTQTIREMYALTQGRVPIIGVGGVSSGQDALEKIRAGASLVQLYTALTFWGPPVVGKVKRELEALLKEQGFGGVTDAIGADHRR

Compound: CC(F)(F)c1nc2nc(CO)cc(Nc3ccc(S(F)(F)(F)(F)F)cc3)n2n1
- Tmax [3]: 95 to 143 h
- half-life [4]: 98 to 164 h
- AUC(0-inf) [5]: 167 to 1170 µg·h/mL
- EC50 [6]: 1800 nM

Compound: CC1(C)c2nc(-c3ccc(F)cc3)c(Nc3ccc(F)cc3)n2CCN1C(=O)CN [GANAPLACIDE]
- Cmax [7]: 139 ng/mL
- Tmax [8]: 2 h
- bioavailability [9]: 48%
- EC50 [10]: 5.5 nM
- EC50 [11]: 12.6 nM
- half-life [12]: 6.6 h
- clearance [13]: 90 mL/min/kg
- Vd [14]: 29.5 L/kg
- half-life [15]: 5.7 h
- Tmax [16]: 1 to 6 h
- Cmax [17]: 7.6 to 2720 ng/mL
- clearance [18]: 267 to 583 mL/min
- Vd [19]: 1610 to 2410 L
- half-life [20]: 47 to 70 h
- Activity [21]: 87.5%
- Activity [22]: 58.3%
- half-life [23]: 44 h
- half-life [24]: 44 h
- Time [25]: 45 h
- Time [26]: 49 h
- Time [27]: 24 h
- Time [28]: 24 h

Compound: Cc1cc(Nc2ccc(S(F)(F)(F)(F)F)c(F)c2)n2nc(C(C)(F)F)nc2n1
- IC50 [29]: 10 nM
- IC50 [30]: 3700 nM
- EC50 [31]: 2 nM

Continued, in another order:

- Ki [1]: 90 nM
Compound: Clc1ccc2c(N3CCN(CCCN4CCN(c5ccnc6cc(Cl)ccc56)CC4)CC3)ccnc2c1 [PIPERAQUINE]
- Activity [2]: 79.2%

- Drug uptake [32]: 8%
Compound: C[C@H]1Cc2c([nH]c3cc(Cl)c(F)cc23)-c2c3cc(Cl)ccc3nc(=O)n21
